{"source": "patent US20240197815A1", "about": "“METHODS AND COMPOSITIONS FOR IMPROVING VISUAL FUNCTION IN OCULAR DISEASES AND DISORDERS” (ONL Therapeutics, Inc., priority 2021, published 2024)", "format_in_all_cases": "in vivo, human", "key": {"[1]": {"system": "patients with retinal detachment", "assay": "Clinical study in retinal detachment patients: BCVA after single intravitreal injection followed by vitrectomy", "settings": "for summary statistics for all patients, mean (of the BCVA logMAR values of Table 2): all doses 25-200 ug; for BCVA logMAR study eye / BCVA Snellen study eye: individual patients", "procedure": "(§1) The primary objective was to determine the Maximum Tolerated Dose (MTD) of a peptide an amino acid sequence […] and the structure of Formula III (ONL1204) and select doses for further clinical studies. During the study, ocular fluid samples were also collected at the time of study drug injection and at the time of vitrectomy. These samples were used for pharmacokinetic and pharmacodynamic analyses.\n(§2) Patients were enrolled in ascending dose groups. […] Safety visits were conducted one day post-injection and as deemed necessary by the examining Investigator (at least 1 visit every 3 days) until Visit 3. At Visit 3 (3+ days post-injection, in accordance with standard of care) patients underwent surgical repair of their retinal detachment with vitrectomy (with or without scleral buckling) and gas or oil tamponade. At the time of surgery, an undiluted vitreous sample was collected for pharmacokinetic and pharmacodynamics analyses, and an aqueous sample was collected for pharmacodynamic analysis. Additional safety visits were targeted for and generally conducted one day post-surgery, 7 days (±3 days) post-surgery, 14 (+4 days) days post-surgery, and Weeks 6, 9, 12 (±7 days each), and Week 24 (+14 days; study exit).\nTherefore, a volume of 0.05 or 0.1 mL was injected into the study eye. Patient participation was approximately 24 weeks (6 months): a single injection treatment and 24 weeks of follow-up."}, "[2]": {"system": "patients with retinal detachment", "assay": "Clinical study in retinal detachment patients: safety, adverse event reporting", "procedure": "as §1, §2\nPlanned determinations of dose limiting toxicity included consideration of the following events: • 1."}, "ICAM1": {"system": "ICAM1", "assay": "Change in cytokine level in ocular fluid samples from administration to surgery", "procedure": "as §1, §2"}, "IL1RA": {"system": "IL1RA", "assay": "Change in cytokine level in ocular fluid samples from administration to surgery", "procedure": "as §1, §2"}, "MCP1": {"system": "MCP1", "assay": "Change in cytokine level in ocular fluid samples from administration to surgery", "procedure": "as §1, §2"}, "IL18": {"system": "IL18", "assay": "Change in cytokine level in ocular fluid samples from administration to surgery", "procedure": "as §1, §2"}, "[3]": {"system": "patients having macular degeneration characterized by geographic atrophy (GA)", "assay": "Clinical study in GA patients: best corrected visual acuity (BCVA) after single intravitreal injection", "settings": "all patients receiving 25 ug and 50 ug, compared to baseline BCVA"}, "[4]": {"settings": "8 patients, 25 ug and 50 ug cohorts"}, "[5]": {"settings": "dose 25 ug (Table 1), individual patients"}, "[6]": {"settings": "dose 50 ug (Table 1), individual patients"}, "[7]": {"settings": "dose 100 ug (Table 1), individual patients"}, "[8]": {"settings": "dose 200 ug (Table 1), individual patient"}}, "note": "Where “and” joins values, the source holds several entries; their conditions need not be identical. Equal values may be shown once. Ends that are not written are not given here.", "data": [{"substance": "HHIYLGAVNYIY-NH2 [ONL1204]", "values": [{"measurement": "summary statistics for all patients, mean (of the BCVA logMAR values of Table 2)", "setting": "[1]; Week 6, n 14", "result": 0.65}, {"measurement": "summary statistics for all patients, mean (of the BCVA logMAR values of Table 2)", "setting": "[1]; Week 9, n 13", "result": 0.78}, {"measurement": "summary statistics for all patients, mean (of the BCVA logMAR values of Table 2)", "setting": "[1]; Week 24, n 13", "result": 0.56}, {"measurement": "visual outcomes", "setting": "[1]; all patients receiving ONL1204, also with greater than 10 days of central vision loss, 3 to 7 days from administration to surgery, range of detachment heights and extents", "result": "improved visual outcomes were observed for all patients"}, {"measurement": "visual outcomes (e.g., visual acuity)", "setting": "[1]; retinal detachment, all patients receiving 25 ug and 50 ug, intravitreal injection then surgery", "result": "improvement in visual outcomes"}, {"measurement": "BCVA logMAR study eye", "setting": "[1]; week 6, dose 25 ug (Table 1)", "result": "0.34 logMAR and 0.18 logMAR and 0.82 logMAR (2×)"}, {"measurement": "BCVA Snellen study eye", "setting": "[1]; week 6, dose 25 ug", "result": "20/40 and 20/32 and 20/125 (2×)"}, {"measurement": "BCVA logMAR study eye", "setting": "[1]; week 6, dose 50 ug (Table 1)", "result": "0.46 logMAR and 0.38 logMAR (2×) and 0.52 logMAR"}, {"measurement": "BCVA Snellen study eye", "setting": "[1]; week 6, dose 50 ug", "result": "20/50 (2×) and 20/80"}, {"measurement": "BCVA logMAR study eye", "setting": "[1]; week 6, dose 100 ug (Table 1)", "result": "0.8 logMAR and 0.7 logMAR and 1 logMAR and 1.6 logMAR"}, {"measurement": "BCVA Snellen study eye", "setting": "[1]; week 6, dose 100 ug", "result": "20/125 and 20/100 and 20/200 and 20/800"}, {"measurement": "BCVA logMAR study eye", "setting": "[1]; week 6, dose 200 ug (Table 1)", "result": "0.4 logMAR and 0.7 logMAR"}, {"measurement": "BCVA Snellen study eye", "setting": "[1]; week 6, dose 200 ug", "result": "20/50 and 20/100"}, {"measurement": "BCVA logMAR study eye", "setting": "[1]; week 9, dose 25 ug (Table 1)", "result": "0.14 logMAR and 0.12 logMAR and 0.64 logMAR and 0.78 logMAR"}, {"measurement": "BCVA Snellen study eye", "setting": "[1]; week 9, dose 25 ug", "result": "20/25 (2×) and 20/100 and 20/125"}, {"measurement": "BCVA logMAR study eye", "setting": "[1]; week 9, dose 50 ug (Table 1)", "result": "0.6 logMAR and 0.56 logMAR and 0.34 logMAR"}, {"measurement": "BCVA Snellen study eye", "setting": "[1]; week 9, dose 50 ug", "result": "20/80 (2×) and 20/50"}, {"measurement": "BCVA Snellen study eye", "setting": "[1]; week 9, dose 100 ug, HM = hand motion", "result": "20/200 and 20/80 and 20/400"}, {"measurement": "BCVA logMAR study eye", "setting": "[1]; week 9, dose 200 ug (Table 1)", "result": "0.36 logMAR and 0.6 logMAR"}, {"measurement": "BCVA Snellen study eye", "setting": "[1]; week 9, dose 200 ug", "result": "20/40 and 20/80"}, {"measurement": "BCVA logMAR study eye", "setting": "[1]; week 24, dose 25 ug (Table 1)", "result": "0.5 logMAR and 0.2 logMAR and 0.68 logMAR and 0.7 logMAR"}, {"measurement": "BCVA Snellen study eye", "setting": "[1]; week 24, dose 25 ug", "result": "20/60 and 20/32 and 20/100 (2×)"}, {"measurement": "BCVA logMAR study eye", "setting": "[1]; week 24, dose 50 ug (Table 1)", "result": "0.76 logMAR and 0.2 logMAR and 0.64 logMAR and 0.34 logMAR"}, {"measurement": "BCVA Snellen study eye", "setting": "[1]; week 24, dose 50 ug", "result": "20/125 and 20/32 and 20/80 and 20/50"}, {"measurement": "BCVA logMAR study eye", "setting": "[1]; week 24, dose 100 ug (Table 1)", "result": "0.5 logMAR and 0.7 logMAR and 1.3 logMAR and 0.6 logMAR"}, {"measurement": "BCVA Snellen study eye", "setting": "[1]; week 24, dose 100 ug", "result": "20/63 and 20/100 and 20/400 and 20/80"}, {"measurement": "BCVA logMAR study eye", "setting": "[1]; week 24, dose 200 ug (Table 1)", "result": 0.2, "unit": "logMAR"}, {"measurement": "BCVA Snellen study eye", "setting": "[1]; week 24, dose 200 ug", "result": "20/32"}, {"measurement": "patients experiencing adverse events", "setting": "[2]; 4 patients receiving 25 ug and 4 patients receiving 50 ug", "result": "7 out of 8"}, {"measurement": "severity and relatedness of adverse events", "setting": "[2]; [4]", "result": "Most were mild, and study procedure or surgery related"}, {"measurement": "total adverse events", "setting": "[2]; [4]", "result": 20, "unit": "adverse events"}, {"measurement": "change in ICAM level from ONL1204 administration to surgery, mean", "setting": "ICAM1; all patients of Table 7", "result": "mean decrease"}, {"measurement": "ICAM1 Percent Change (%) from time of administering ONL1204 to surgery", "setting": "ICAM1; [5]", "result": "−82.4% and −42.7% and −86.2%"}, {"measurement": "ICAM1 Percent Change (%) from time of administering ONL1204 to surgery", "setting": "ICAM1; [6]", "result": "−100% and 0% and 64.0%"}, {"measurement": "ICAM1 Percent Change (%) from time of administering ONL1204 to surgery", "setting": "ICAM1; [7]", "result": "−43.9% and 24.9% and 22.7%"}, {"measurement": "ICAM1 Percent Change (%) from time of administering ONL1204 to surgery", "setting": "ICAM1; [8]", "result": 0, "unit": "%"}, {"measurement": "change in IL1RA level from ONL1204 administration to surgery, mean", "setting": "IL1RA; all patients of Table 7", "result": "mean decrease"}, {"measurement": "IL1RA Percent Change (%) from time of administering ONL1204 to surgery", "setting": "IL1RA; [5]", "result": "−51.0% and −57.4% and −99.3%"}, {"measurement": "IL1RA Percent Change (%) from time of administering ONL1204 to surgery", "setting": "IL1RA; [6]", "result": "−94.4% and −88.3% and −60.0%"}, {"measurement": "IL1RA Percent Change (%) from time of administering ONL1204 to surgery", "setting": "IL1RA; [7]", "result": "8.5% and −46.1% and −65.2%"}, {"measurement": "IL1RA Percent Change (%) from time of administering ONL1204 to surgery", "setting": "IL1RA; [8]", "result": "−26.3", "unit": "%"}, {"measurement": "change in MCP1 level from ONL1204 administration to surgery, mean", "setting": "MCP1; all patients of Table 7", "result": "mean decrease"}, {"measurement": "MCP1 Percent Change (%) from time of administering ONL1204 to surgery", "setting": "MCP1; [5]", "result": "−41.4% and −6.02% and −35.9%"}, {"measurement": "MCP1 Percent Change (%) from time of administering ONL1204 to surgery", "setting": "MCP1; [6]", "result": "−48.4% and 11.6% and −3.12%"}, {"measurement": "MCP1 Percent Change (%) from time of administering ONL1204 to surgery", "setting": "MCP1; [7]", "result": "−9.5% and 78.5% and 500%"}, {"measurement": "MCP1 Percent Change (%) from time of administering ONL1204 to surgery", "setting": "MCP1; [8]", "result": "−2.4", "unit": "%"}, {"measurement": "change in IL18 level from ONL1204 administration to surgery, mean", "setting": "IL18; all patients of Table 7", "result": "mean decrease"}, {"measurement": "IL18 Percent Change (%) from time of administering ONL1204 to surgery", "setting": "IL18; [5]", "result": "−60.5% and −22.5% and −50.8%"}, {"measurement": "IL18 Percent Change (%) from time of administering ONL1204 to surgery", "setting": "IL18; [6]", "result": "−100% and 0% (2×)"}, {"measurement": "IL18 Percent Change (%) from time of administering ONL1204 to surgery", "setting": "IL18; [7]", "result": "−33.7% and 0% and 66.0%"}, {"measurement": "IL18 Percent Change (%) from time of administering ONL1204 to surgery", "setting": "IL18; [8]", "result": 0, "unit": "%"}, {"measurement": "visual outcomes (e.g., visual acuity)", "setting": "[3]", "result": "improvement in visual outcomes"}]}]}
